Several values for one entry are separate records, joined by “and”; a condition that tells them apart may be missing. Equal entries are not always repeated. Inconclusive results and toxic doses are left out. Starred links: 1 amine or outer side, 2 acyl side, 3 side chain; linkers in the order of their positions; H or OH if unused. Positions of bridges follow the written chain, without caps; N, C: chain ends. Non-standard residues stand in square brackets, D forms with d. Residues, ends and D or L forms follow the SMILES beside them. Chains are numbered I, II in the order given. Actinocin(1to9) = Cc1c2oc3c(C)ccc(C(=O)[*:2])c3nc-2c(C(=O)[*:1])c(N)c1=O; NMeV = CN[CH](C(=O)O)C(C)C; Aze = O=C(O)[CH]1CCN1; Sar = CNCC(=O)O
Test system: BDF1 mice, P815 leukemia ip, survival T/C
Assay: NCI In Vivo Anticancer Drug Screen. Data for tumor model P815 Mast Cell Leukemia (Ascitic) (intraperitoneal) in B6D2F1 (BDF1) mice
Conditions: higher = longer survival
Procedure: The antitumor activity of compounds was measured in mice bearing transplantable tumors. Survival or tumor size were measured and the results are expressed as the measurement made in the treated group (T) divided by the measurement made in the vehicle treated control group (C). The tumor model used in this assay is P815 Mast Cell Leukemia (Ascitic) (intraperitoneal) in B6D2F1 (BDF1) mice

[1] = endpoint: survival time, mean or median, dose: 25.0 mg/kg/injection, schedule: Q01DX010 (ip), vehicle: saline
[2] = endpoint: survival time, mean or median, dose: 50.0 mg/kg/injection, schedule: Q01DX010 (ip), vehicle: saline

Which results are given for `Nc1nc(N)c2nc(CNc3ccc(C(=O)NC(CCC(=O)O)C(=O)O)cc3)cnc2n1` (stereo not given)?
T/C (endpoint: survival time, mean or median, dose: 0.03 mg/kg/injection, schedule: Q01DX010 (ip), vehicle: other): 102 % of control and 105 % of control; T/C (endpoint: survival time, mean or median, dose: 0.05 mg/kg/injection, schedule: Q01DX010 (ip), vehicle: other): 100 % of control and 102 % of control; T/C (endpoint: survival time, mean or median, dose: 0.1 mg/kg/injection, schedule: Q01DX010 (ip), vehicle: other): 100 % of control and 108 % of control; T/C (endpoint: survival time, mean or median, dose: 0.2 mg/kg/injection, schedule: Q01DX010 (ip), vehicle: other): 105 % of control and 108 % of control

Which results are given for `C[C@@H]1C[C@H]2CC[C@H](O2)[C@H](C)C(=O)O[C@@H](C)C[C@@H]2CC[C@@H](O2)[C@@H](C)C(=O)O[C@H](C)C[C@H]2CC[C@H](O2)[C@H](C)C(=O)O[C@@H](C)C[C@@H]2CC[C@@H](O2)[C@@H](C)C(=O)O1`?
T/C (endpoint: survival time, mean or median, dose: 1.5 mg/kg/injection, schedule: Q01DX015 (ip), vehicle: other): 106 % of control; T/C (endpoint: survival time, mean or median, dose: 3.0 mg/kg/injection, schedule: Q01DX015 (ip), vehicle: other): 98 % of control; T/C (endpoint: survival time, mean or median, dose: 6.0 mg/kg/injection, schedule: Q01DX015 (ip), vehicle: other): 100 % of control; T/C (endpoint: survival time, mean or median, dose: 12.0 mg/kg/injection, schedule: Q01DX015 (ip), vehicle: other): 100 % of control

With `Cc1c2oc3c(C)ccc(C(=O)NC4C(=O)NC(C(C)C)C(=O)N5CCCC5C(=O)N(C)CC(=O)N(C)C(C(C)C)C(=O)OC4C)c3nc-2c(C(=O)NC2C(=O)NC(C(C)C)C(=O)N3CCC3C(=O)N(C)CC(=O)N(C)C(C(C)C)C(=O)OC2C)c(N)c1=O` (stereo not given) (I: TV[Aze][Sar][NMeV] / II: TVP[Sar][NMeV]; ester I:1-I:C, II:1-II:C; linker I:N-II:N via Actinocin(1to9); configuration not given here) as the compound, how does the T/C (endpoint: median survival time, dose: 450.0 micrograms/kg/injection, schedule: Q01DX001 (ip), vehicle: saline + alcohol) read?
Its T/C is 116 % of control.

What about the T/C (endpoint: median survival time, dose: 750.0 micrograms/kg/injection, schedule: Q01DX001 (ip), vehicle: saline + alcohol) of the same compound?
Its T/C is 118 % of control.

What about the T/C (endpoint: median survival time, dose: 750.0 micrograms/kg/injection, schedule: Q04DX003 (ip), vehicle: saline + alcohol) of the same compound?
The T/C was 96 % of control.

And the T/C (endpoint: median survival time, dose: 1250.0 micrograms/kg/injection, schedule: Q04DX003 (ip), vehicle: saline + alcohol)?
Its T/C is 93 % of control.

And the T/C (endpoint: median survival time, dose: 2080.0 micrograms/kg/injection, schedule: Q01DX001 (ip), vehicle: saline + alcohol)?
Its T/C is 86 % of control.

With `N=[N+]=CC(=O)OCC(N)C(=O)O` (stereo not given) as the compound, how does the T/C (endpoint: survival time, mean or median, dose: 3.13 mg/kg/injection, schedule: Q01DX010 (ip), vehicle: saline) read?
The T/C was 110 % of control and 111 % of control.

What about the T/C (endpoint: survival time, mean or median, dose: 6.25 mg/kg/injection, schedule: Q01DX010 (ip), vehicle: saline) of the same compound?
The T/C was 118 % of control and 119 % of control.

And the T/C (endpoint: survival time, mean or median, dose: 12.5 mg/kg/injection, schedule: Q01DX010 (ip), vehicle: saline)?
The T/C was 100 % of control and 123 % of control.

`CCN(CC)CCNc1ccc(C)c2sc3ccccc3c(=O)c12` was tested. Which T/C [1] did it give?
The T/C was 107 % of control and 113 % of control.

What about the T/C [2] of the same compound?
Its T/C is 118 % of control and 123 % of control.

`COc1cc(-c2ccc(Nc3ccccc3C(=O)O)c(OC)c2)ccc1Nc1ccccc1C(=O)O` was tested. Which T/C (endpoint: survival time, mean or median, dose: 45.0 mg/kg/injection, schedule: Q01DX010 (ip), vehicle: saline) did it give?
The T/C was 108 % of control.

And the T/C (endpoint: survival time, mean or median, dose: 67.0 mg/kg/injection, schedule: Q01DX010 (ip), vehicle: saline)?
The T/C was 120 % of control.

How did the T/C (endpoint: survival time, mean or median, dose: 0.5 mg/kg/injection, schedule: Q01DX015 (ip), vehicle: carboxymethylcellulose (CMC)) turn out when `CC(=O)NC1=C(N2CC2)C(=O)C(NC(C)=O)=C(N2CC2)C1=O` was run?
The T/C was 203 % of control.

What about the T/C (endpoint: survival time, mean or median, dose: 1.0 mg/kg/injection, schedule: Q01DX015 (ip), vehicle: carboxymethylcellulose (CMC)) of the same compound?
The T/C was 103 % of control.

What does the source list for `Nc1ccc(OC(=O)Oc2ccc(N)cc2)cc1`?
T/C (endpoint: survival time, mean or median, dose: 25.0 mg/kg/injection, schedule: Q01DX015 (ip), vehicle: saline): 97 % of control; T/C (endpoint: survival time, mean or median, dose: 50.0 mg/kg/injection, schedule: Q01DX015 (ip), vehicle: saline): 102 % of control; T/C (endpoint: survival time, mean or median, dose: 100.0 mg/kg/injection, schedule: Q01DX015 (ip), vehicle: saline): 108 % of control; T/C (endpoint: survival time, mean or median, dose: 200.0 mg/kg/injection, schedule: Q01DX015 (ip), vehicle: saline): 104 % of control

With `OCC1OC(n2cnc3c(Cl)ncnc32)C(O)C1O` (stereo not given) as the compound, how does the T/C (endpoint: survival time, mean or median, dose: 62.5 mg/kg/injection, schedule: Q01DX010 (ip), vehicle: saline) read?
Its T/C is 104 % of control and 108 % of control.

What about the T/C (endpoint: survival time, mean or median, dose: 125.0 mg/kg/injection, schedule: Q01DX010 (ip), vehicle: saline) of the same compound?
The T/C was 100 % of control and 104 % of control.

And the T/C (endpoint: survival time, mean or median, dose: 250.0 mg/kg/injection, schedule: Q01DX010 (ip), vehicle: saline)?
Its T/C is 91 % of control and 100 % of control.

What about the T/C (endpoint: survival time, mean or median, dose: 500.0 mg/kg/injection, schedule: Q01DX010 (ip), vehicle: saline) of the same compound?
The T/C was 95 % of control.

With `CS(=O)(=O)OCC(O)C(O)C(O)C(O)COS(C)(=O)=O` (stereo not given) as the compound, how does the T/C [1] read?
Its T/C is 100 % of control.

And the T/C [2]?
The T/C was 100 % of control and 112 % of control.

And the T/C (endpoint: survival time, mean or median, dose: 100.0 mg/kg/injection, schedule: Q01DX010 (ip), vehicle: saline)?
The T/C was 95 % of control and 112 % of control.

What about the T/C (endpoint: survival time, mean or median, dose: 200.0 mg/kg/injection, schedule: Q01DX010 (ip), vehicle: saline) of the same compound?
The T/C was 95 % of control and 112 % of control.

What about the T/C (endpoint: survival time, mean or median, dose: 400.0 mg/kg/injection, schedule: Q01DX010 (ip), vehicle: saline) of the same compound?
Its T/C is 112 % of control.
